For one data set, the system named is MCF-7 cells. As to the kind of experiment: Cytotoxicity to MCF-7 cells with or without 25 μM dicoumarol (sulforhodamine B assay). It counts as cell-based, human. The conditions noted are these: for IC50: Homo sapiens; for Fold Protection of MCF7 cells w/ 25 μM dicoumarol: Table 1. The method in brief:
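MCF-7 cells, which express high NQO1, were exposed to compounds for 2 hours with or without 25 μM dicoumarol. They were then washed and kept 72 hours in fresh media. Cell death was measured by sulforhodamine B assay.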

A further data set deals with NQO1 (Homo sapiens, UniProt P15559). As to the kind of experiment: NQO1 enzymatic measurements in vitro. The conditions noted are these: 1 μM substrate. The format is biochemical. Here is the method: As further evidence that the activity of these DNQ derivatives is dependent on their ability to be reduced by NQO1, full enzymatic measurements in vitro were performed. We found a strong correlation between catalytic efficiency of substrates in vitro and their cell culture toxicity. […] This provides strong evidence that the cytotoxicity of DNQ and its derivatives are dependent primarily upon the activity of NQO1 within the cell.

A short description of data set [1]: Solubility in 20% HPβCD solution (pH modulation protocol). The format is physicochemical. The conditions noted are these: for solubility: pH 7.4, aqueous with cosolvent or surfactant or cyclodextrin, thermodynamic from solid, Table 4.3. The method in brief:
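Compound slurried in 20% HPβCD in pH 7.4 PBS, dissolved by raising pH with 10 M NaOH, then brought back to pH 7.5-8.0 with 1 M HCl. Solubility compared with buffer alone.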

The nature of data set [2]: Solubility in organic solvents. It counts as physicochemical. The conditions noted are these: for solubility: organic solvent or mixture, thermodynamic from solid. Here is the method:
The solubility of DNQ derivatives in organic solvents was determined by measuring the amount of a given solvent required to dissolve a known amount of compound. Solvent was added to the compound in 50 μL aliquots and the slurry was sonicated. […] Solubility was assessed in DMSO, dichloromethane, and 33% methanol in dichloromethane (FIGS. 9, 10, and 11, respectively).

Data set [3] is described as follows: Maximum tolerated dose in mice. The conditions noted are these: mouse, ip. The source says: Because of the difficulty of repeated tail vein injections in mice, our group is using IP administration of compound.
All of these derivatives are currently being assessed for their maximum tolerated dose (MTD) in healthy mice. Compounds are formulated in HPβCD and delivered by IP injection to two mice once daily for five days.

The next data set relates to PAR-PARP1. As to the kind of experiment: PARP1 hyperactivation (PAR-PARP1 formation) in vivo in orthotopic Lewis Lung Carcinoma model, immunoblotting. More on the design: species or system NOD/SCID mice. The conditions noted are these: iv at or near MTD. Here is the method: Antibodies that specifically detect poly(ADP-ribosyl)ated α-PAR (BD Pharmingen, San Jose, Calif.) proteins (e.g., the most abundant species, poly(ADP-ribosyl)ated PARP1, PAR-PARP1) and α-PARP1 (sc-8007, Santa Cruz Biotechnology) antibodies were used at 1:4000 and 1:2000 dilutions, respectively. α-Tubulin was monitored for loading.
To generate a known control to monitor the formation of poly(ADP-ribose)ylated-polymerase 1 (PAR-PARP1) in cells, LLC tumor cells were treated in vitro with hydrogen peroxide (H2O2, 0.5 μM) for 15 minutes, and whole cell protein lysates were separated by SDS-PAGE using the α-PAR (BD Pharmingen, San Jose, Calif.) antibody described above. PAR-PARP1 formation was then assessed by immunoblot analyses as previously described in Huang et al., Cancer Research, 2012.
LLC cells (1.0×10^6) were intravenously (iv) injected into the tail veins of female 18-20 gram NOD/SCID mice. Establishment of tumor nodules in the lungs of exposed mice were confirmed by bioluminescence and mice (5/group) were treated intravenously (via tail vein injection) with: (i) hydroxypropyl-beta-cyclodextrin (HPRCD) vehicle alone; (ii) DNQ (7.5 mg/kg); (ii) DNQ-87 (14 mg/kg); (iii) DNQ-107 (10 mg/kg); or (vi) DNQ 9-251 (20 mg/kg) dissolved in HPRCD. At specific times indicated (in mins) after injection of vehicle or drug, mice were euthanized, lungs removed and tumor nodules harvested. […] Extracts from cells treated with H2O2 were used as controls for monitoring PAR-PARP1 formation in LLC tumor cells.

Data set [4] is described as follows: Solubility in organic solvents. It counts as physicochemical. The conditions noted are these: organic solvent or mixture, thermodynamic from solid; THF; Table 1.
[5] abbreviates: MCF7, Table 1, read-out: MCF7 IC50.
The mark [6] stands for this setting: MCF7, Table 4.2, no DIC, ± s.e., read-out: IC50 vs. MCF-7 cells.
[7] abbreviates: MCF7, classification in figure legends of FIGS. 7-11, read-out: IC50 ("active" / generally "inactive" compounds).
Where [8] appears, read: MCF7, read-out: IC50 vs. MCF-7 cells +25 μM DIC, Table 4.2, +25 μM DIC, ± s.e.
[9] abbreviates: 20% HPβCD in pH 7.4 PBS, 20% HPβCD.
The mark [10] stands for this setting: 2:1 CH2Cl2:MeOH, Table 4.3, read-out: Solubility in 2:1 CH2Cl2:MeOH.
Where [11] appears, read: CH2Cl2:MeOH 2:1, Table 1, read-out: CH2Cl2:MeOH 2:1 solubility.
[12] abbreviates: CH2Cl2, Table 1, read-out: CH2Cl2 solubility.
The mark [13] stands for this setting: DMSO, Table 1, read-out: DMSO solubility.

≈ marks a conversion by molar mass, not a printed value. Where “and” joins values, the source holds several entries; their conditions need not be identical. Identical values can stand only once. Like-named read-outs stand apart in the source and are kept apart here.

Sequence of NQO1 (P15559 whole entry): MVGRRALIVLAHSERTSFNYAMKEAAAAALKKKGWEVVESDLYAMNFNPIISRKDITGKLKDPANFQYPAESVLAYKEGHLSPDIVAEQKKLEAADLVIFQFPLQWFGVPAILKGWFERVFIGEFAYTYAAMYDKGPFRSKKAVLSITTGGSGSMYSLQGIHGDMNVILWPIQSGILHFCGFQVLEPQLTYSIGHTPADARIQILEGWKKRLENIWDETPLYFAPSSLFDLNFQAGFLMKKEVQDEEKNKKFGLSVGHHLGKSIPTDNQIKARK

`Cc1cc(=O)[nH]c2c1C(=O)c1c(C)cc(=O)n(C)c1C2=O` [DNQ, Deoxynyboquinone, reference compound]: the IC50 in the data set on MCF-7 cells (MCF7, 2 h, Table 4.1, 2 h exposure, no DIC, ± s.e., read-out: IC50 vs. MCF-7 cells) was 130 ± 20 nM; in the data set on MCF-7 cells (setting [5]), 190 nM; with MCF-7 cells (setting [6]), 130 ± 20 nM; in the data set with MCF-7 cells (setting [7]) it was under 500 nM; in the data set on MCF-7 cells (MCF7, read-out: IC50 vs. MCF-7 cells +25 μM DIC, Table 4.1, +25 μM DIC, ± s.e.), 1700 ± 300 nM; with MCF-7 cells (setting [8]) it was 1800 ± 300 nM. Also, the “Fold Protection of MCF7 cells w/ 25 μM dicoumarol” value in the data set with MCF-7 cells turned out to be 7.8. The “Fold protection by DIC” value with MCF-7 cells (Table 4.1) and with MCF-7 cells (Table 4.2) was 14 in each case. Besides, at NQO1, the “NQO1 Initial Velocity @ 1 μM” value amounted to 1900 ± 100. In addition, in data set [1] (20% HPβCD), the “fold increase in solubility in HPβCD over PBS alone” value stood at 30 fold. The “solution concentration in HPβCD” value in data set [1] (20% HPβCD in pH 7.4 PBS) was 3.3 mM. Moreover, the solubility in data set [1] (setting [9]) turned out to be 3.3 mM (≈ 938 µg/mL); in data set [2] (setting [10]) it was 8.5 mM (≈ 2420 µg/mL); in data set [2] (setting [11]), 8.5 mM (≈ 2420 µg/mL); in data set [2] (setting [12]), 0.7 mM (≈ 199 µg/mL); in data set [2] (setting [13]), 3.1 mM (≈ 881 µg/mL); in data set [4] it was 0.42 mM (≈ 119 µg/mL). The “solution concentration a 40% HPβCD solution would permit” value in data set [1] (40% HPβCD, linear extrapolation) is recorded as 6.6 mM. The “Solubility in CH2Cl2” value in data set [2] (CH2Cl2, Table 4.3) stood at 0.7 mM (≈ 199 µg/mL). Also, the “Solubility in DMSO” value in data set [2] (DMSO, Table 4.3) stood at 3.1 mM (≈ 881 µg/mL). The molecule further returned an MTD in data set [3] (in vivo) of about 5 mg/kg. Also, the MTD at 5 days in data set [3] (in vivo) was found to be 5 mg/kg; in data set [3] it was 18 µmol/kg. Further, the “PAR-PARP1 formation in tumor tissue” value in the data set with PAR-PARP1 is recorded as “formation of PAR-PARP1”.
In the case of `Cc1cc(=O)[nH]c2c1C(=O)c1c(C)cc(=O)n(CC(C)C)c1C2=O` [Compound 87], the IC50 was 250 nM with MCF-7 cells (setting [5]), 230 ± 20 nM in the data set on MCF-7 cells (setting [6]), under 500 nM with MCF-7 cells (setting [7]) and 1100 ± 100 nM with MCF-7 cells (setting [8]). Further, in the data set on MCF-7 cells, the “Fold Protection of MCF7 cells w/ 25 μM dicoumarol” value was determined as 6.1. In addition, the “Fold protection by DIC” value in the data set with MCF-7 cells (Table 4.2) worked out at 4.8. The “NQO1 Initial Velocity @ 1 μM” value on NQO1 was determined as 1900 ± 200. The solubility came to 13 mM (≈ 4240 µg/mL) in data set [1] (setting [9]); 140 mM (≈ 45700 µg/mL) in data set [2] (setting [10]); 140 mM (≈ 45700 µg/mL) in data set [2] (setting [11]); 180 mM (≈ 58700 µg/mL) in data set [2] (setting [12]); 110 mM (≈ 35900 µg/mL) in data set [2] (setting [13]); 34 mM (≈ 11100 µg/mL) in data set [4]. Further, the “Solubility in CH2Cl2” value in data set [2] (CH2Cl2, Table 4.3) worked out at 180 mM (≈ 58700 µg/mL). Moreover, the “Solubility in DMSO” value in data set [2] (DMSO, Table 4.3) is 110 mM (≈ 35900 µg/mL). Also, the MTD at 5 days in data set [3] (in vivo) was 14 mg/kg and 44 µmol/kg. Also, the “PAR-PARP1 formation in tumor tissue” value in the data set on PAR-PARP1 is recorded as “higher levels of PAR-PARP1 formation”.

The term solubility denotes how much of the substance goes into solution per volume.

The record behind these values is US10285986B2, “Compounds and anti-tumor NQO1 substrates” (The Board of Trustees of the University of Illinois, priority 2011, dated 2019).
